Molecular target: Human immunodeficiency virus type 1 protease (Human immunodeficiency virus 1, UniProt Q72874)
Assay: The compound was tested in vitro for its inhibitory activity against HIV-1 Proteinase activity

Compound	IC50 [nM]
CCCNC(=O)[C@@H](NC(=O)Cc1ccccc1)[C@@H]1N[C@@H](C(=O)N(C)CCN(C)C(=O)[C@@H]2N[C@@H]([C@H](NC(=O)Cc3ccccc3)C(=O)NCC)SC2(C)C)C(C)(C)S1	11
CC1(C)S[C@H]([C@H](NC(=O)Cc2ccccc2)C(=O)NCc2ccccc2)N[C@H]1C(=O)NCCCCNC(=O)[C@@H]1N[C@@H]([C@H](NC(=O)Cc2ccccc2)C(=O)NCc2ccccc2)SC1(C)C	530
CC1(C)S[C@H]([C@H](NC(=O)Cc2ccccc2)C(=O)NCc2ccccc2)N[C@H]1C(=O)NC[C@@H](O)[C@@H](O)CNC(=O)[C@@H]1N[C@@H]([C@H](NC(=O)Cc2ccccc2)C(=O)NCc2ccccc2)SC1(C)C	14
CCCNC(=O)[C@@H](NC(=O)Cc1ccccc1)[C@@H]1N[C@@H](C(=O)NCC(CO)NC(=O)[C@@H]2N[C@@H]([C@H](NC(=O)Cc3ccccc3)C(=O)NCC)SC2(C)C)C(C)(C)S1 (stereo partly specified)	25
CC1(C)S[C@H]([C@H](NC(=O)Cc2ccccc2)C(=O)NCc2ccccc2)N[C@H]1C(=O)NC[C@H](O)[C@@H](O)CNC(=O)[C@@H]1N[C@@H]([C@H](NC(=O)Cc2ccccc2)C(=O)NCc2ccccc2)SC1(C)C	36
CC1(C)S[C@H]([C@H](NC(=O)Cc2ccccc2)C(=O)NCc2ccccc2)N[C@H]1C(=O)NC[C@@H](O)[C@H](O)CNC(=O)[C@@H]1N[C@@H]([C@H](NC(=O)Cc2ccccc2)C(=O)NCc2ccccc2)SC1(C)C	15

From ChEMBL document CHEMBL1127200, “Novel dimeric penicillin derived inhibitors of HIV-1 proteinase: interaction with the catalytic aspartates” (Bioorg Med Chem Lett, 1993)
